In patent publication US9044454B2, “Regulation of microvasculature occlusion” (NORTHWESTERN UNIVERSITY, priority 2010, dated 2015):

Columns and labels:
[1] = tested on: mice embolized with fibrin clots or microspheres (cerebral microvasculature); assay: Measurement of embolus extravasation in MMP 2/9 inhibitor injected embolized mice; assay type: in vivo, mouse
Source text: To induce cerebral embolization fluorescently conjugated fibrin clots, cholesterol emboli (8-20 μm in diameter) or polystyrene microspheres (10 or 15 μm in diameter) were infused through the mouse internal carotid artery. Emboli were imaged in fixed tissues by confocal microscopy after vessel labeling by I.V. injection of FITC-lycopersicom esculentum, thioflavin-S or immunolabeled with anti-PECAM-1, collagen IV or ZO-1 antibodies. Emboli were also imaged overtime in vivo by transcranial two-photon microscopy (TPM) in mice expressing GFP in endothelial cells (Tie2-GFP) or wild type mice injected with thioflavin-S I.V. Blood flow velocity was recorded by line scan TPM imaging to verify microvascular occlusion and reestablishment of flow. […] Quantification of extravasation efficiency was performed from confocal images in fixed brain slices and in a subset of experiments from in vivo TPM time-lapse images. Matrix metalloprotease 2/9 (MMP2/9) activity was measured in areas adjacent to emboli using fluorescent in situ zymography methods. […] Perivascular hypoxia was detected by administration and immunohistochemical detection of hypoxyprobe. Dendritic spine density was quantified in confocal image stacks of fixed brain slices from mice expressing YFP in a subset of pyramidal neurons. […]

[2] = tested on: U87 cancer cells (glioma model) tumor in mice; assay: Inhibition of recanalization in U87 tumors embolized with microspheres; assay type: in vivo
Protocol: Mice cerebral vasculatures were embolized by intravascular infusion with either (15 micron microspheres+2 mg/ml ML-7 solution) or (15 micron microspheres+vehicle) followed by daily intra-peritoneal injection of ML-7. 14 days later brain tissues were collected and vessels were labeled with fluorescein lectin. The proportion of recanalized occlusions was assessed from 50 randomly selected microsphere in each group.
U87 cancer cells, which model glioma, were implanted in mice to create a tumor. Tumors were embolized by intravascular infusion with either (15 micron microspheres+2 mg/ml ML-7 solution) or (15 micron microspheres+vehicle). 7 days later brain tissues were collected and vessels were labeled with anti CD 31 antibodies. Cell death marker caspase 3 was labeled with anti caspase 3 antibody. Without ML-7 to inhibit extravasation of emboli, individual emboli cause a moderate amount of caspase upregulation and tumor blood vessels are recanalized re-establishing blood flow to the tumor. […] The proportion of recanalized occlusions was assessed for each group.

[3] = 15 micron microspheres + 2 mg/ml ML-7 solution vs vehicle, FIG. 3

## O=S(=O)(CC1CS1)c1ccc(Oc2ccccc2)cc1 (centres unmarked) [SB-3CT]
[1]; fibrin clot-embolized mice, SB-3CT 20 mg/kg/day i.p. vs saline, 4 days
  extravasation of clot fragments: marked reduction
[1]; microsphere-embolized mice, SB-3CT i.p. daily 2, 10, 20 mg/kg/day or acutely 40 mg/kg vs saline, 14 days post-embolization
  microsphere extravasation: substantial reduction

## O=S(=O)(c1cccc2c(I)cccc12)N1CCCNCC1 [ML-7]
[2]; 15 micron microspheres + 2 mg/ml ML-7 solution vs microspheres + vehicle, intravascular infusion, 7 days
  cell death marker Caspase-3 within the cancer: broad upregulation
[2]; [3]
  extravasated emboli: less extravasated emboli
  proportion of recanalized occlusions (occluded vessels re-canalized): fewer of occluded vessels had been re-canalized
